From PubChem BioAssay AID180 (DTP/NCI, 2004)
Where “and” joins values, the source holds several entries; their conditions need not be identical. Identical values can stand only once.

System: BDF1 mice, Adenocarcinoma 755 s.c., tumor weight T/C
Assay: NCI In Vivo Anticancer Drug Screen. Data for tumor model Adenocarcinoma 755 (subcutaneous) in B6D2F1 (BDF1) mice
Details: endpoint: mean tumor weight, higher = larger tumour
In short: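 Readout: T/C, i.e. treated-group measurement over vehicle-control measurement. Endpoint is survival or tumor size in tumor-bearing mice given compound.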

[1] = dose: 37.5 mg/kg/injection, schedule: Q01DX011 (ip), vehicle: methylcellulose (MC)

With CC(Cc1ccccc1)NC(=O)CCl (stereo unspecified) the T/C (dose: 37.0 mg/kg/injection, schedule: Q01DX011 (im), vehicle: other) was 68 % of control, the T/C (dose: 37.0 mg/kg/injection, schedule: Q01DX011 (oral), vehicle: other) was 71 % of control and the T/C (dose: 37.0 mg/kg/injection, schedule: Q01DX011 (sc), vehicle: other) was 118 % of control. For the same compound, the T/C (dose: 50.0 mg/kg/injection, schedule: Q01DX011 (im), vehicle: other) was 68 % of control, the T/C (dose: 50.0 mg/kg/injection, schedule: Q01DX011 (oral), vehicle: other) was 106 % of control and the T/C (dose: 50.0 mg/kg/injection, schedule: Q01DX011 (sc), vehicle: other) was 73 % of control. The T/C (dose: 75.0 mg/kg/injection, schedule: Q01DX011 (im), vehicle: other) was 48 % of control, the T/C (dose: 75.0 mg/kg/injection, schedule: Q01DX011 (oral), vehicle: other) was 87 % of control and the T/C (dose: 75.0 mg/kg/injection, schedule: Q01DX011 (sc), vehicle: other) was 63 % of control. For the same compound, the T/C (dose: 112.0 mg/kg/injection, schedule: Q01DX011 (oral), vehicle: other) was 82 % of control.

With Nc1nc(SCc2ccc(Cl)cc2)c2ncn(C3OC(CO)C(O)C3O)c2n1 (stereo unspecified) the T/C [1] was 6 % of control and the T/C (dose: 75.0 mg/kg/injection, schedule: Q01DX011 (ip), vehicle: methylcellulose (MC)) was 1 % of control.

In the case of CC(=O)OCC1OC(n2c(Br)nc3c(=O)[nH]c(N)nc32)C(OC(C)=O)C1OC(C)=O (stereo unspecified), the T/C (dose: 30.0 mg/kg/injection, schedule: Q01DX011 (ip), vehicle: carboxymethylcellulose (CMC)) is reported as 95 % of control, the T/C (dose: 60.0 mg/kg/injection, schedule: Q01DX011 (ip), vehicle: carboxymethylcellulose (CMC)) is reported as 119 % of control and the T/C (dose: 120.0 mg/kg/injection, schedule: Q01DX011 (ip), vehicle: carboxymethylcellulose (CMC)) is reported as 90 % of control. The T/C (dose: 240.0 mg/kg/injection, schedule: Q01DX011 (ip), vehicle: carboxymethylcellulose (CMC)) was 82 % of control.

With NC1(C(=O)O)CCCC1 the T/C (dose: 4.45 mg/kg/injection, schedule: Q01DX011 (ip), vehicle: carboxymethylcellulose (CMC)) was 71 % of control, the T/C (dose: 7.5 mg/kg/injection, schedule: Q01DX011 (ip), vehicle: methylcellulose (MC)) was 61 % of control and the T/C (dose: 8.9 mg/kg/injection, schedule: Q01DX011 (ip), vehicle: carboxymethylcellulose (CMC)) was 70 % of control. The T/C (dose: 13.12 mg/kg/injection, schedule: Q01DX011 (ip), vehicle: carboxymethylcellulose (CMC)) was 42 % of control, the T/C (dose: 14.24 mg/kg/injection, schedule: Q01DX011 (ip), vehicle: carboxymethylcellulose (CMC)) was 83 % of control and the T/C (dose: 15.0 mg/kg/injection, schedule: Q01DX011 (ip), vehicle: methylcellulose (MC)) was 96 % of control. For the same compound, the T/C (dose: 16.0 mg/kg/injection, schedule: Q01DX011 (ip), vehicle: saline) was 43 % of control, the T/C (dose: 18.0 mg/kg/injection, schedule: Q01DX011 (ip), vehicle: methylcellulose (MC)) was 40 % of control and the T/C (dose: 23.73 mg/kg/injection, schedule: Q01DX011 (ip), vehicle: carboxymethylcellulose (CMC)) was 55 % of control. For the same compound, the T/C (dose: 30.0 mg/kg/injection, schedule: Q01DX011 (ip), vehicle: methylcellulose (MC)) was 12 % of control, the T/C (dose: 31.3 mg/kg/injection, schedule: Q01DX011 (ip), vehicle: saline) was 13 % of control and the T/C (dose: 35.6 mg/kg/injection, schedule: Q01DX011 (ip), vehicle: carboxymethylcellulose (CMC)) was 33 % of control and 38 % of control. The T/C [1] was 16 % of control, the T/C (dose: 42.0 mg/kg/injection, schedule: Q01DX011 (ip), vehicle: carboxymethylcellulose (CMC)) was 31 % of control and the T/C (dose: 42.0 mg/kg/injection, schedule: Q01DX011 (oral), vehicle: saline) was 10 % of control. The T/C (dose: 52.5 mg/kg/injection, schedule: Q01DX011 (ip), vehicle: carboxymethylcellulose (CMC)) was 8 % of control and 14 % of control, the T/C (dose: 60.0 mg/kg/injection, schedule: Q01DX011 (ip), vehicle: methylcellulose (MC)) was 12 % of control and the T/C (dose: 62.5 mg/kg/injection, schedule: Q01DX011 (ip), vehicle: saline) was 6 % of control. The T/C (dose: 63.0 mg/kg/injection, schedule: Q01DX011 (oral), vehicle: saline) was 4 % of control, the T/C (dose: 70.0 mg/kg/injection, schedule: Q01DX011 (ip), vehicle: carboxymethylcellulose (CMC)) was 4 % of control and the T/C (dose: 95.0 mg/kg/injection, schedule: Q01DX011 (oral), vehicle: saline) was 1 % of control. For the same compound, the T/C (dose: 105.0 mg/kg/injection, schedule: Q01DX011 (ip), vehicle: carboxymethylcellulose (CMC)) was 3 % of control and 6 % of control.

For COc1cc2c(c(OC)c1OC)-c1ccc(N)c(=O)cc1[C@@H](NC(C)=O)CC2, the T/C (dose: 0.5 mg/kg/injection, schedule: Q01DX011 (ip), vehicle: saline) was 98 % of control, the T/C (dose: 2.0 mg/kg/injection, schedule: Q01DX011 (ip), vehicle: saline) was 32 % of control and 47 % of control and the T/C (dose: 4.0 mg/kg/injection, schedule: Q01DX011 (ip), vehicle: saline) was 15 % of control and 37 % of control.
